Assay results reported in ChEMBL document CHEMBL3243999, “Novel anxiolytic agents derived from alpha-amino-alpha-phenyl-o-tolyl-4H-triazoles and -imidazoles” (J Med Chem, 1978).

Tests used:
Mus musculus [1] = test: Sedative activity in ip dosed CF-1 albino mouse assessed as muscle relaxation by measuring depression of traction; format: functional
Mus musculus [2] = test: Muscle relaxing activity in ip dosed CF-1 albino mouse by chimney test; format: functional
Mus musculus [3] = test: Muscle relaxing activity in ip dosed CF-1 albino mouse assessed as depression of dish reflexes; format: functional
Mus musculus [4] = test: Anticonvulsant activity in ip dosed CF-1 albino mouse assessed as antagonism of nicotine-induced tonic extensor convulsions; format: functional
Mus musculus [5] = test: Anticonvulsant activity in ip dosed CF-1 albino mouse assessed as antagonism of nicotine-induced death; format: functional
Mus musculus [6] = test: Anticonvulsant activity in ip dosed CF-1 albino mouse assessed as antagonism of pentylenetetrazole-induced clonic convulsions; format: functional
Mus musculus [7] = test: Anticonvulsant activity in po dosed CF-1 albino mouse assessed as antagonism of pentylenetetrazole-induced clonic convulsions; format: functional; conditions: CF-1, po
Rattus norvegicus = test: Anticonvulsant activity in po dosed Sprague-Dawley rat assessed as antagonism of pentylenetetrazole-induced clonic convulsions; format: functional
[8] = Retention time of the compound by GLC-electron capture detection analysis; format: physicochemical
Mus musculus [9] = test: Anxiolytic activity in ip dosed CF-1 albino mouse assessed as antagonism of electric shock-induced effect; format: functional; conditions: CF-1, ip
Mus musculus [10] = test: Anticonvulsant activity in ip dosed CF-1 albino mouse assessed as antagonism of thiosemicarbazide-induced lethality; format: functional; conditions: CF-1, ip
Brain [11] = test: Drug metabolism in Sprague-Dawley rat brain assessed as triazolam metabolite formation at 20 mg/kg, ip after 0.5 hrs by GLC-electron capture detection analysis; format: ADME, organism-based; design: dose 20 mg/kg, route intraperitoneal; conditions: in vivo
Brain [12] = test: Drug metabolism in Sprague-Dawley rat brain assessed as unchanged drug level at 20 mg/kg, ip after 20 mins by GC-MS analysis; format: ADME, organism-based; design: dose 20 mg/kg, route intraperitoneal; conditions: in vivo
Mus musculus [13] = test: Drug metabolism in mouse silylated blood assessed as triazolobenzodiazepine metabolite formation at 30 mg/kg, ip after 30 mins by GC-MS analysis; format: ADME, organism-based; design: dose 30 mg/kg, route intraperitoneal; conditions: in vivo, 0.5 h
Brain [14] = test: Drug metabolism in mouse brain assessed as un-identified metabolite formation at 20 mg/kg, ip after 0.5 hrs by GLC-electron capture detection analysis; format: ADME, organism-based; design: dose 20 mg/kg, route intraperitoneal; conditions: in vivo
Brain [15] = test: Drug metabolism in mouse brain assessed as unchanged drug level at 20 mg/kg, ip after 20 mins by GC-MS analysis; format: ADME, organism-based; design: dose 20 mg/kg, route intraperitoneal; conditions: in vivo
Brain [16] = test: Retention time of the compound in mouse brain treated with (5-chloro-2-(3,5-dimethyl-4H-1,2,4-triazol-4-yl)phenyl)(2-chlorophenyl)methanamine at 20 mg/kg, ip after 0.5 hrs by GLC-electron capture detection analysis; format: ADME, organism-based; design: dose 20 mg/kg, route intraperitoneal; conditions: in vivo
Brain [17] = test: Drug level in mouse brain treated with (5-chloro-2-(3,5-dimethyl-4H-1,2,4-triazol-4-yl)phenyl)(2-chlorophenyl)methanamine at 20 mg/kg, ip after 20 mins by GC-MS analysis; format: ADME, organism-based; design: dose 20 mg/kg, route intraperitoneal; conditions: in vivo
Brain [18] = test: Drug level in Sprague-Dawley rat brain treated with (5-chloro-2-(3,5-dimethyl-4H-1,2,4-triazol-4-yl)phenyl)(2-chlorophenyl)methanamine at 20 mg/kg, ip after 20 mins by GC-MS analysis; format: ADME, organism-based; design: dose 20 mg/kg, route intraperitoneal; conditions: in vivo
[19] = Mus musculus, CF-1, ip, read-out: ED50

| SMILES | ED50 (Mus musculus [1]; [19]) [mg/kg] | ED50 (Mus musculus [2]; [19]) [mg/kg] | ED50 (Mus musculus [4]; [19]) [mg/kg] | ED50 (Mus musculus [5]; [19]) [mg/kg] | ED50 (Mus musculus [6]; [19]) [mg/kg] | ED50 (Mus musculus [3]; [19]) [mg/kg] | ED50 (Mus musculus [9]) [mg/kg] | ED50 (Mus musculus [10]) [mg/kg] | other results |
| --- | --- | --- | --- | --- | --- | --- | --- | --- | --- |
| Cc1nnc(CO)n1-c1ccc(Cl)cc1C(N)c1ccccc1Cl (single isomer, unassigned; isomer 1) | 16 | 0.63 | 0.4 | 0.5 | 1.2 | – | – | – | ED50 (Mus musculus [3]): 1.1 mg/kg; ED50 (Mus musculus [7]): 6.2 mg/kg; ED50 (Rattus norvegicus): > 50 mg/kg |
| Cc1nnc(C)n1-c1ccc(Cl)cc1C(N)c1ccccc1 (stereo unspecified) | – | – | – | – | 16 | – | – | – | – |
| Cc1nnc(/C=N/N(C)C)n1-c1ccc(Cl)cc1C(N)c1ccccc1Cl (single isomer, unassigned) | – | – | – | – | – | – | – | – | ED50 (Mus musculus [1]): 50 mg/kg; ED50 (Mus musculus [2]): 16 mg/kg; ED50 (Mus musculus [3]): 7.1 mg/kg; ED50 (Mus musculus [4]): 4 mg/kg; ED50 (Mus musculus [5]): 4 mg/kg; ED50 (Mus musculus [6]): 5.6 mg/kg |
| Cc1nnc2n1-c1ccc(Cl)cc1C(c1ccccc1)=NC2 [ALPRAZOLAM] | – | – | – | – | – | – | – | – | Retention_time [8]: 12 min |
| CN/N=C/c1nnc(C)n1-c1ccc(Cl)cc1C(N)c1ccccc1Cl (stereo unspecified) | 20 | 7 | 1.3 | 1.4 | 1.2 | 0.4 | > 100 | – | – |
| Cc1nnc(CN)n1-c1ccc(Cl)cc1Cc1ccccc1 | 25 | 18 | 7 | 6.2 | 12.5 | 14 | – | – | – |
| Cc1nnc(C)n1-c1ccc(Cl)cc1C(N)c1ccccc1Cl (stereo unspecified) | > 100 | 6.3 | 0.5 | 0.5 | 1.2 | 3.2 | > 100 | 0.4 | ED50 (Rattus norvegicus): > 50 mg/kg; Retention_time [8]: 9 min; Drug metabolism (Brain [11]): metabolite_notdetected; Drug metabolism (Brain [12]): 272 ng; Drug metabolism (Mus musculus [13]): metabolite_detected; Drug metabolism (Brain [14]): metabolite_detected; Drug metabolism (Brain [15]): 65 ng |
| Br.Cc1nccn1-c1ccc(Cl)cc1C(N)c1ccccc1 (stereo unspecified) | 32 | 18 | 9 | 9 | – | 16 | – | – | – |
| Cc1nnc(/C=N/N(C)C)n1-c1ccc(Cl)cc1C(N)c1ccccc1Cl (single isomer, unassigned; isomer 1) | 71 | 22 | 5.6 | 8 | 8.9 | 11.2 | > 100 | – | – |
| Cc1nnc2n1-c1ccc(Cl)cc1C(c1ccccc1Cl)=NC2 [TRIAZOLAM] | 0.7 | 0.056 | 0.04 | 0.04 | 0.04 | 0.1 | 23 | 0.028 | ED50 (Rattus norvegicus): 0.18 mg/kg; Retention_time [8]: 15 min; Retention_time (Brain [16]): 15 min; Drug metabolism (Brain [17]): 190 ng; Drug metabolism (Brain [18]): 4 ng |
| Cc1nnc(CN(C)C)n1-c1ccc(Cl)cc1C(=O)c1ccccc1Cl | 3.2 | – | 0.14 | 0.14 | 0.28 | 0.25 | 50 | 0.02 | – |
| CN1C(=O)CN=C(c2ccccc2)c2cc(Cl)ccc21 [DIAZEPAM] | 5 | – | 0.11 | 0.11 | 0.8 | 0.31 | 20 | 0.2 | ED50 (Rattus norvegicus): 4.8 mg/kg |
| Cc1nnc(CO)n1-c1ccc(Cl)cc1C(N)c1ccccc1Cl (single isomer, unassigned; isomer 2) | – | – | – | – | – | – | – | – | ED50 (Mus musculus [1]): 8 mg/kg; ED50 (Mus musculus [2]): 0.5 mg/kg; ED50 (Mus musculus [3]): 3.5 mg/kg; ED50 (Mus musculus [4]): 0.3 mg/kg; ED50 (Mus musculus [5]): 0.3 mg/kg; ED50 (Mus musculus [6]): 1 mg/kg |
| Cc1nnc(CN(C)C)n1-c1ccc(Cl)cc1C(N)c1ccccc1Cl (stereo unspecified) | 1.4 | 0.71 | 0.25 | 0.18 | 0.2 | 0.56 | 40 | 0.09 | ED50 (Mus musculus [7]): 0.6 mg/kg; ED50 (Rattus norvegicus): 4.4 mg/kg |
| Cc1cn(-c2ccc(Cl)cc2C(N)c2ccccc2Cl)c(C)n1 (stereo unspecified) | > 100 | > 100 | 3.6 | 3.6 | – | 20 | > 100 | 1.8 | – |
| Cc1nnc(C2CC2)n1-c1ccc(Cl)cc1C(N)c1ccccc1Cl (stereo in doubt; 21b) | – | – | – | – | – | – | – | – | ED50 (Mus musculus [1]): >100 mg/kg; ED50 (Mus musculus [2]): 56 mg/kg; ED50 (Mus musculus [3]): 40 mg/kg; ED50 (Mus musculus [4]): 2.8 mg/kg; ED50 (Mus musculus [5]): 2 mg/kg; ED50 (Mus musculus [6]): >50 mg/kg |
| Cc1nnc(C2CC2)n1-c1ccc(Cl)cc1C(N)c1ccccc1Cl (single isomer, unassigned; isomer 1) | > 50 | 40 | 2.3 | 2.3 | 40 | – | – | – | ED50 (Mus musculus [3]): 4.5 mg/kg |
| CC(C)=NC(c1ccccc1Cl)c1cc(Cl)ccc1-n1c(C)nnc1C (stereo unspecified) | > 30 | 6 | 0.75 | 0.85 | 1.2 | 6.6 | – | 0.34 | – |
